Results as given in the supplement of paper PMC10307832.

What was measured:
Experiment in all cases: relative viability (nuclei count vs DMSO), 5 days (fraction); higher = more cells survive
[1] = compound: CC[C@H](CO)Nc1nc(NCc2ccccc2)c2ncn(C(C)C)c2n1 [Seliciclib]
Procedure, shortened: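 Lung cancer cell lines received five library-drug doses (not always all listed) spaced by √10, pinned on vehicle-anchored 1536-well plates after an overnight stay at 37 °C. Five days later, with no medium change, nuclei were Hoechst-stained, imaged at 4× and counted with MetaXpress. Viability is treated-well nuclei relative to vehicle-well nuclei, as a median across plates. Passing plates had control CV below 25% and at least one doubling.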

[2] = compound: CC[C@H](CO)Nc1nc(NCc2ccccc2)c2ncn(C(C)C)c2n1 [Seliciclib] + CC(=O)Nc1cccc(-n2c(=O)n(C3CC3)c(=O)c3c(Nc4ccc(I)cc4F)n(C)c(=O)c(C)c32)c1 [Trametinib] (partner 0.02 µM)
Procedure, shortened: (§1)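 Five library-drug doses in √10 steps were combined with a fixed anchor-drug dose, or a single drug was given alone, by pin tool to lung cancer cell lines in 1536-well plates the day after seeding. Nuclei were stained and counted after 5 days. Relative viability is the nuclei count in treated wells over that in vehicle wells, taken as the median of duplicate plates.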

[3] = compound: CC[C@H](CO)Nc1nc(NCc2ccccc2)c2ncn(C(C)C)c2n1 [Seliciclib] + COc1cccc2cc(-c3nc([C@H]4CC[C@H](C(=O)O)CC4)n4ncnc(N)c34)[nH]c12 [OSI-027] (partner 0.5 µM)
Procedure, shortened: as §1

[4] = compound: CC[C@H](CO)Nc1nc(NCc2ccccc2)c2ncn(C(C)C)c2n1 [Seliciclib] + N=C(N)NC(=N)NCCc1ccccc1 [Phenformin] (partner 250 µM)
Procedure, shortened: as §1

Work on NCI-H441 yielded a relative viability ([1]; 0.08 µM) of 1.07, a relative viability ([1]; 0.253 µM) of 1.01 and a relative viability ([1]; 0.8 µM) of 1.06. The relative viability ([1]; 2.53 µM) was 0.783, the relative viability ([1]; 8 µM) was 0.566 and the relative viability ([2]; first compound 0.08 µM) was 0.563. It also gave a relative viability ([2]; first compound 0.253 µM) of 0.552, a relative viability ([2]; first compound 0.8 µM) of 0.557 and a relative viability ([2]; first compound 2.53 µM) of 0.241. For the same cell line, the relative viability ([2]; first compound 8 µM) was 0.454, the relative viability ([3]; first compound 0.08 µM) was 0.794 and the relative viability ([3]; first compound 0.253 µM) was 0.582. It also gave a relative viability ([3]; first compound 0.8 µM) of 0.645, a relative viability ([3]; first compound 2.53 µM) of 0.335 and a relative viability ([3]; first compound 8 µM) of 0.423. The relative viability ([4]; first compound 0.08 µM) was 0.836, the relative viability ([4]; first compound 0.253 µM) was 0.804 and the relative viability ([4]; first compound 0.8 µM) was 0.805. For the same cell line, the relative viability ([4]; first compound 2.53 µM) was 0.459 and the relative viability ([4]; first compound 8 µM) was 0.632.
NCI-H460 showed a relative viability ([1]; 0.08 µM) of 0.952, a relative viability ([1]; 0.253 µM) of 1.13 and a relative viability ([1]; 0.8 µM) of 0.996. The relative viability ([1]; 2.53 µM) was 1.04, the relative viability ([1]; 8 µM) was 0.889 and the relative viability ([2]; first compound 0.08 µM) was 0.176. For the same cell line, the relative viability ([2]; first compound 0.253 µM) was 0.137, the relative viability ([2]; first compound 0.8 µM) was 0.132 and the relative viability ([2]; first compound 2.53 µM) was 0.115. The relative viability ([2]; first compound 8 µM) was 0.102, the relative viability ([3]; first compound 0.08 µM) was 0.706 and the relative viability ([3]; first compound 0.253 µM) was 0.601. It also gave a relative viability ([3]; first compound 0.8 µM) of 0.672, a relative viability ([3]; first compound 2.53 µM) of 0.563 and a relative viability ([3]; first compound 8 µM) of 0.561. The relative viability ([4]; first compound 0.08 µM) was 0.55, the relative viability ([4]; first compound 0.253 µM) was 0.526 and the relative viability ([4]; first compound 0.8 µM) was 0.515. The relative viability ([4]; first compound 2.53 µM) was 0.567 and the relative viability ([4]; first compound 8 µM) was 0.469.
NCI-H520 showed a relative viability ([1]; 0.08 µM) of 0.918, a relative viability ([1]; 0.8 µM) of 0.968 and a relative viability ([1]; 2.53 µM) of 1.12. The relative viability ([1]; 8 µM) was 0.843, the relative viability ([2]; first compound 0.08 µM) was 0.617 and the relative viability ([2]; first compound 0.253 µM) was 0.411. The relative viability ([2]; first compound 0.8 µM) was 0.669, the relative viability ([2]; first compound 2.53 µM) was 0.599 and the relative viability ([2]; first compound 8 µM) was 0.625. It also gave a relative viability ([3]; first compound 0.08 µM) of 0.275, a relative viability ([3]; first compound 0.8 µM) of 0.324 and a relative viability ([3]; first compound 2.53 µM) of 0.277. It also gave a relative viability ([3]; first compound 8 µM) of 0.228, a relative viability ([4]; first compound 0.08 µM) of 0.61 and a relative viability ([4]; first compound 0.8 µM) of 0.571. For the same cell line, the relative viability ([4]; first compound 2.53 µM) was 0.634 and the relative viability ([4]; first compound 8 µM) was 0.38.
NCI-H522 was tested, and the relative viability ([1]; 0.08 µM) was 0.944, the relative viability ([1]; 0.253 µM) was 0.94 and the relative viability ([1]; 0.8 µM) was 1.05. The relative viability ([1]; 2.53 µM) was 0.847, the relative viability ([1]; 8 µM) was 0.727 and the relative viability ([2]; first compound 0.08 µM) was 0.735. The relative viability ([2]; first compound 0.253 µM) was 0.672, the relative viability ([2]; first compound 0.8 µM) was 0.778 and the relative viability ([2]; first compound 2.53 µM) was 0.673. It also gave a relative viability ([2]; first compound 8 µM) of 0.713, a relative viability ([3]; first compound 0.08 µM) of 0.818 and a relative viability ([3]; first compound 0.253 µM) of 0.63. It also gave a relative viability ([3]; first compound 0.8 µM) of 0.685, a relative viability ([3]; first compound 2.53 µM) of 0.623 and a relative viability ([3]; first compound 8 µM) of 0.644. The relative viability ([4]; first compound 0.08 µM) was 0.731, the relative viability ([4]; first compound 0.253 µM) was 0.655 and the relative viability ([4]; first compound 0.8 µM) was 0.645. For the same cell line, the relative viability ([4]; first compound 2.53 µM) was 0.599 and the relative viability ([4]; first compound 8 µM) was 0.709.
NCI-H596 showed a relative viability ([1]; 0.08 µM) of 1.01, a relative viability ([1]; 0.8 µM) of 0.948 and a relative viability ([1]; 2.53 µM) of 0.991. The relative viability ([1]; 8 µM) was 0.872, the relative viability ([2]; first compound 0.08 µM) was 0.814 and the relative viability ([2]; first compound 0.8 µM) was 0.75. For the same cell line, the relative viability ([2]; first compound 2.53 µM) was 0.837, the relative viability ([2]; first compound 8 µM) was 0.58 and the relative viability ([3]; first compound 0.08 µM) was 0.784. It also gave a relative viability ([3]; first compound 0.8 µM) of 0.607, a relative viability ([3]; first compound 2.53 µM) of 0.812 and a relative viability ([3]; first compound 8 µM) of 0.657. It also gave a relative viability ([4]; first compound 0.08 µM) of 0.66, a relative viability ([4]; first compound 0.8 µM) of 0.83 and a relative viability ([4]; first compound 2.53 µM) of 0.784. The relative viability ([4]; first compound 8 µM) was 0.595.
With NCI-H647 the relative viability ([1]; 0.08 µM) was 0.971, the relative viability ([1]; 0.253 µM) was 0.836 and the relative viability ([1]; 0.8 µM) was 1.03. The relative viability ([1]; 2.53 µM) was 0.939, the relative viability ([1]; 8 µM) was 0.754 and the relative viability ([2]; first compound 0.08 µM) was 0.392. For the same cell line, the relative viability ([2]; first compound 0.253 µM) was 0.37, the relative viability ([2]; first compound 0.8 µM) was 0.427 and the relative viability ([2]; first compound 2.53 µM) was 0.512. For the same cell line, the relative viability ([2]; first compound 8 µM) was 0.508, the relative viability ([3]; first compound 0.08 µM) was 0.616 and the relative viability ([3]; first compound 0.8 µM) was 0.652. The relative viability ([3]; first compound 2.53 µM) was 0.552, the relative viability ([3]; first compound 8 µM) was 0.534 and the relative viability ([4]; first compound 0.08 µM) was 0.515. For the same cell line, the relative viability ([4]; first compound 0.8 µM) was 0.537, the relative viability ([4]; first compound 2.53 µM) was 0.603 and the relative viability ([4]; first compound 8 µM) was 0.409.
Work on NCI-H650 yielded a relative viability ([1]; 0.08 µM) of 0.942, a relative viability ([1]; 0.253 µM) of 0.892 and a relative viability ([1]; 0.8 µM) of 1.24. It also gave a relative viability ([1]; 2.53 µM) of 0.591, a relative viability ([1]; 8 µM) of 0.831 and a relative viability ([2]; first compound 0.08 µM) of 0.96. The relative viability ([2]; first compound 0.253 µM) was 1.08, the relative viability ([2]; first compound 0.8 µM) was 1.01 and the relative viability ([2]; first compound 2.53 µM) was 0.863. The relative viability ([2]; first compound 8 µM) was 0.877, the relative viability ([3]; first compound 0.08 µM) was 0.539 and the relative viability ([3]; first compound 0.253 µM) was 0.497. For the same cell line, the relative viability ([3]; first compound 0.8 µM) was 0.651, the relative viability ([3]; first compound 2.53 µM) was 0.313 and the relative viability ([3]; first compound 8 µM) was 0.495. The relative viability ([4]; first compound 0.08 µM) was 0.48, the relative viability ([4]; first compound 0.253 µM) was 0.467 and the relative viability ([4]; first compound 0.8 µM) was 0.532. It also gave a relative viability ([4]; first compound 2.53 µM) of 0.257 and a relative viability ([4]; first compound 8 µM) of 0.46.
NCI-H661 was tested, and the relative viability ([1]; 0.08 µM) was 0.964, the relative viability ([1]; 0.253 µM) was 1.02 and the relative viability ([1]; 0.8 µM) was 0.966. The relative viability ([1]; 2.53 µM) was 0.916, the relative viability ([1]; 8 µM) was 0.756 and the relative viability ([2]; first compound 0.08 µM) was 0.59. The relative viability ([2]; first compound 0.253 µM) was 0.581, the relative viability ([2]; first compound 0.8 µM) was 0.5 and the relative viability ([2]; first compound 2.53 µM) was 0.491. For the same cell line, the relative viability ([2]; first compound 8 µM) was 0.416, the relative viability ([3]; first compound 0.08 µM) was 0.757 and the relative viability ([3]; first compound 0.253 µM) was 0.741. The relative viability ([3]; first compound 0.8 µM) was 0.687, the relative viability ([3]; first compound 2.53 µM) was 0.65 and the relative viability ([3]; first compound 8 µM) was 0.637. For the same cell line, the relative viability ([4]; first compound 0.08 µM) was 0.274, the relative viability ([4]; first compound 0.253 µM) was 0.26 and the relative viability ([4]; first compound 0.8 µM) was 0.297. For the same cell line, the relative viability ([4]; first compound 2.53 µM) was 0.264 and the relative viability ([4]; first compound 8 µM) was 0.304.
